Reference: paper PMC3859497, “Expression and Biological Activity of the Cystine Knot Bioinsecticide PA1b (Pea Albumin 1 Subunit b)” (PLoS ONE, 2013)
No end group written: not given here.

Experiments:
[1] = tested on: Sitophilus oryzae sensitive weevil strain WAA42; test: Toxicity assay on weevils, sensitive strain WAA42 (survival analysis on food pellets); format: in vivo; conditions: adult S. oryzae, sensitive strain WAA42, fed food pellets (wheat flour and water) incorporating peptide at 400 µg.g−1, days +/− SEM, LT50 calculated with SIMFIT
Experimental: (§1) Rice weevils (Sitophilus oryzae, Coleoptera) were reared on wheat seeds at 27.5°C and 70% RH. Tests and survival analysis were performed on adults feeding on food pellets (composed of wheat flour and water) incorporating PA1b (extracted from pea seeds for control tests or produced in tobacco) at 400 µg.g^−1, as described in detail in [10]. LT50 values were calculated using the SIMFIT software (http://www.simfit.man.ac.uk). The PA1b resistant strain, ISOR3, was reared in an identical way except that the weevils were fed on pea seeds rather than on wheat seeds.

[2] = tested on: Sitophilus oryzae PA1b resistant strain ISOR3; test: Toxicity assay on weevils, PA1b resistant strain ISOR3; format: in vivo; conditions: adult S. oryzae, PA1b resistant strain ISOR3, food pellets incorporating peptide at 400 µg.g−1
Experimental: as §1

Sf9 insect cells = test: Viability assay on Sf9 insect cells; format: cell-based, Spodoptera frugiperda; conditions: Sf9 cell viability assay, nM (SEM), HPLC purified tobacco-expressed isoforms
Experimental: Spodoptera frugiperda Sf9 cells were grown and used for viability assays, according to [23].

Substance	TL50 WAA42 [1]	TL50 ISOR3 (mortality on resistant strain) [2]	CL50 Sf9 (Sf9 insect cells)	TL50 WAA42 ([1]; listed as 4)	TL50 WAA42 ([1]; listed as isoform 4) [days]	TL50 WAA42 ([1]; listed as 3)	TL50 WAA42 ([1]; listed as isoform 3)	CL50 Sf9 (Sf9 insect cells; listed as 3) [nM]	CL50 Sf9 (Sf9 insect cells; listed as isoform 3)
ASCNGVCSPFEMoxPPCGTSACRCIPVGLVIGYCRNPSG (bicyclic or more) [Isoform 6, pea PA1b isoform (GenBank AJ574793) expressed in tobacco]	8.9+−0.7 days	no mortality	96 (22) nM	–	–	–	–	–	–
ASCNGVCSPFEMPPCGTSACRCIPVGLFIGYCRNPSG (also: bicyclic or more (positions not given here)) [Isoform 2.2, pea PA1b isoform 2 (GenBank AJ574794), non-oxidized Met form, expressed in tobacco]	8.9+−0.6 days	no mortality	53 (16) nM	–	–	–	–	–	–
ASCNGVCSPFEMoxPPCGTSACRCIPVGLFIGYCRNPSG (bicyclic or more) [Isoform 2.1, pea PA1b isoform 2 (GenBank AJ574794), oxidized Met form, expressed in tobacco]	9.5+−0.7 days	no mortality	82 (36) nM	–	–	–	–	–	–
ASCNGVCSPFEMoxPPCGSSACRCIPVGLVVGYCRHPSG (bicyclic or more) [Isoform 4, pea PA1b isoform (GenBank M13790 and AJ276882) expressed in tobacco]	–	no mortality	269 ± 50 nM	12.9+−1.1 days	12.9 ± 1.1	–	–	–	–
ASCNGVCSPFEMoxPPCGTSACRCIPVGLVVGYCRNPSG (bicyclic or more) [Isoform 5, pea PA1b isoform (GenBank M13709) expressed in tobacco]	9.35+−0.7 days	no mortality	99 (31) nM	–	–	–	–	–	–
ASCNGVCSPFEMoxPPCGSSACRCIPVGLLIGYCRNPSG (bicyclic or more) [Isoform 1, pea PA1b isoform (GenBank AJ574795) expressed in N. benthamiana with the PA1-cassette]	9.2+−0.9 days	no mortality	82 (24) nM	–	–	–	–	–	–
ISCNGVCSPFDIPPCGSPLCRCIPAGLVIGNCRNPY G (bicyclic or more) [Isoform 3, pea PA1b isoform (GenBank AJ574796) expressed in tobacco]	–	no mortality	–	–	–	no mortality	completely inactive	>1500	completely inactive
